Source: EPA's ToxRefDB 2

Key:
[1] = test system: rat; conditions: Combined chronic toxicity/carcinogenicity, sprague dawley, Oral, Feed, dose end: 108 week, group: systemic
[2] = test system: mouse; conditions: Carcinogenicity, cd1, Oral, Feed, dose end: 104 week, group: systemic
[3] = test system: dog; conditions: Chronic toxicity, beagle, Oral, Gavage/Intubation, dose end: 6 month, group: systemic
[4] = test system: mouse; conditions: Combined chronic toxicity/carcinogenicity, b6c3f1, Oral, Water, dose end: 104 week, group: systemic
[5] = test system: rat; conditions: Multigenerational reproductive toxicity study, sprague dawley, Inhalation, Whole-Body, dose end: 2 generation
[6] = test system: rat; conditions: Prenatal developmental toxicity study; wistar; Inhalation; Whole-Body; dose end: 19 GD; group: maternal; systemic / pathology gross / kidney / [other]
[7] = test system: rat; conditions: Chronic toxicity, sprague dawley, Oral, Feed, dose end: 4 week, group: systemic
[8] = test system: rat; conditions: Combined chronic toxicity/carcinogenicity; sprague dawley; Oral; Feed; dose end: 104 week; group: systemic; systemic / in life observation / body weight / body weight + systemic / in life observation / body weight / body weight gain + systemic / in…
[9] = test system: dog; conditions: Subchronic oral toxicity in nonrodent, beagle, Feed, dose end: 100 day, group: systemic
[10] = test system: dog; conditions: Chronic toxicity; beagle; Oral; Feed; dose end: 371 day; group: systemic; systemic / clinical chemistry / alanine aminotransferase (alt/sgpt) / alanine aminotransferase (alt/sgpt) + systemic / clinical chemistry / …
[11] = test system: mouse; conditions: Carcinogenicity; other; Oral; Feed; dose end: 18 month; group: systemic; systemic / in life observation / body weight / body weight + systemic / in life observation / body weight / body weight gain
[12] = test system: rat; conditions: Multigenerational reproductive toxicity study, wistar, Oral, Feed, dose end: 2 generation
[13] = test system: rat; conditions: Chronic toxicity, wistar, Oral, Feed, dose end: 24 month, group: systemic
[14] = test system: dog; conditions: Chronic toxicity, beagle, Oral, Feed, dose end: 373 day, group: systemic
[15] = test system: rat; conditions: Subchronic oral toxicity in rodents, wistar, Feed, dose end: 3 month, group: systemic
[16] = test system: rat; conditions: Prenatal developmental toxicity study, wistar, Oral, Gavage/Intubation, dose end: 15 GD
[17] = test system: mouse; conditions: Subchronic oral toxicity in rodents, b6c3f1, Feed, dose end: 90 day, group: systemic
[18] = test system: rat; conditions: Carcinogenicity, other, Oral, Feed, dose end: 24 month, group: systemic
[19] = systemic / pathology microscopic / adrenal gland / hyperplasia + systemic / pathology microscopic / thyroid gland / hyperplasia
[20] = systemic / pathology microscopic / adrenal gland / hyperplasia + systemic / pathology microscopic / thyroid gland / hyperplasia + systemic…
[21] = systemic / pathology microscopic / liver / pigmentation
[22] = systemic / organ weight / thyroid gland / absolute
[23] = systemic / organ weight / thyroid gland / absolute + systemic / hematology / platelet / platelet + systemic / in life observation / body …
[24] = systemic / in life observation / body weight / body weight
[25] = systemic / in life observation / body weight / body weight + systemic / in life observation / water consumption / water consumption
[26] = group: offspring, systemic / in life observation / body weight / offspring (pup) weight
[27] = group: parental, systemic / in life observation / body weight / body weight
[28] = group: reproductive, reproductive / reproductive performance / pregnancy / pregnancy
[29] = systemic / in life observation / body weight / body weight gain + systemic / in life observation / food consumption / food consumption
[30] = systemic / pathology gross / prostate / reduced size
[31] = group: offspring, systemic / in life observation / body weight / offspring (pup) weight + systemic / in life observation / body weight / offspring (pup) …
[32] = group: parental, systemic / in life observation / body weight / body weight + systemic / in life observation / body weight / body weight gain + systemic / in…
[33] = systemic / pathology microscopic / liver / adenoma/carcinoma combined + systemic / pathology microscopic / liver / carcinoma + systemic / in…
[34] = systemic / pathology gross / urinary bladder / foci
[35] = systemic / clinical chemistry / albumin / albumin + systemic / clinical chemistry / creatinine / creatinine + systemic / clinical chemistry…
[36] = systemic / clinical chemistry / creatinine / creatinine
[37] = group: developmental, developmental / developmental malformation / bone / unossified + developmental / developmental malformation / ureter / hydroureter + …
[38] = group: maternal, systemic / in life observation / food consumption / food consumption + reproductive / reproductive performance / resorptions / resorptions…
[39] = systemic / pathology microscopic / heart / vacuolization + systemic / pathology microscopic / liver / hypertrophy
[40] = systemic / pathology microscopic / heart / vacuolization + systemic / pathology microscopic / liver / hypertrophy + systemic / clinical …
[41] = systemic / pathology microscopic / liver / polymorphism

Molecule COC(=O)NS(=O)(=O)c1ccc(N)cc1 [Asulam] has an LEL [1, 19] of 180 mg/kg/day, an LOAEL [1, 19] of 180 mg/kg/day and an NEL [1, 20] of 36 mg/kg/day. It also gave an NOAEL [1, 20] of 36 mg/kg/day, an LOAEL ([2]; systemic / in life observation / body weight / body weight gain + systemic / organ weight / spleen / nos) of 8040 mg/kg/day and an LEL [2, 21] of 74 mg/kg/day. It also gave an NEL [2, 21] of less than 74 mg/kg/day, an NOAEL ([2]; systemic / pathology microscopic / liver / pigmentation + systemic / in life observation / body weight / body weight gain + systemic / organ…) of 730 mg/kg/day and an LEL [3, 22] of 300 mg/kg/day. The LOAEL [3, 22] was 300 mg/kg/day, the NEL [3, 23] was 60 mg/kg/day and the NOAEL [3, 23] was 60 mg/kg/day.

NCl [Chloramine] was tested, and the LEL [4, 24] was 6.67 mg/kg/day, the NEL [4, 24] was less than 6.67 mg/kg/day and the LOAEL [4, 25] was greater than 26.7 mg/kg/day. The NOAEL [4, 25] was no less than 26.7 mg/kg/day.

With CBr [Methyl bromide] the LEL [5, 26] was 30 ppm, the LOAEL [5, 26] was 30 ppm and the NEL [5, 26] was 3 ppm. The NOAEL [5, 26] was 3 ppm, the LOAEL [5, 27] was 90 ppm and the NOAEL [5, 27] was 30 ppm. It also gave an LEL ([5]; group: parental, systemic / in life observation / body weight / body weight + systemic / organ weight / liver / relative to body weight + systemic / organ …) of 90 ppm, an NEL ([5]; group: parental, systemic / organ weight / liver / relative to body weight) of 30 ppm and an LEL [5, 28] of 30 ppm. It also gave an LOAEL [5, 28] of 30 ppm, an NEL [5, 28] of 3 ppm and an NOAEL [5, 28] of 3 ppm. The LEL [6] was 70 ppm, the LOAEL [6] was 70 ppm and the NEL [6] was 20 ppm. For the same molecule, the NOAEL [6] was 20 ppm, the LOAEL ([7]; systemic / in life observation / body weight / body weight gain) was 7.59 mg/kg/day and the NEL [7, 29] was 0.082 mg/kg/day. For the same molecule, the NOAEL [7, 29] was 0.825 mg/kg/day, the LEL ([7]; systemic / in life observation / food consumption / food consumption) was 0.825 mg/kg/day and the LEL [8] was 11.1 mg/kg/day. The LOAEL [8] was 11.1 mg/kg/day, the NEL [8] was 2.2 mg/kg/day and the NOAEL [8] was 2.2 mg/kg/day.

For CC/C(=N\OC/C=C/Cl)C1=C(O)CC(C2CCOCC2)CC1=O (stereo not drawn) [Tepraloxydim], the LOAEL ([9]; systemic / organ weight / liver / absolute + systemic / organ weight / liver / relative to body weight) was 63.3 mg/kg/day, the NOAEL ([9]; systemic / organ weight / liver / absolute + systemic / organ weight / liver / relative to body weight + systemic / clinical chemistry / …) was 12.9 mg/kg/day and the LEL [9, 30] was 12.9 mg/kg/day. It also gave an NEL [9, 30] of less than 12.9 mg/kg/day, an LEL [10] of 248 mg/kg/day and an LOAEL [10] of 248 mg/kg/day. It also gave an NEL [10] of less than 248 mg/kg/day, an NOAEL [10] of less than 248 mg/kg/day and an LEL [11] of 52 mg/kg/day. The LOAEL [11] was 52 mg/kg/day, the NEL [11] was less than 52 mg/kg/day and the NOAEL [11] was less than 52 mg/kg/day. The LEL [12, 31] was 267 mg/kg/day, the LOAEL [12, 31] was 267 mg/kg/day and the NEL [12, 31] was 50.3 mg/kg/day. For the same molecule, the NOAEL [12, 31] was 50.3 mg/kg/day, the LEL [12, 32] was 253 mg/kg/day and the LOAEL [12, 32] was 253 mg/kg/day. For the same molecule, the NEL [12, 32] was 50.9 mg/kg/day, the NOAEL [12, 32] was 50.9 mg/kg/day and the LOAEL [13, 33] was 154 mg/kg/day. It also gave an NEL [13, 33] of 5 mg/kg/day, an NOAEL [13, 33] of 29 mg/kg/day and an LEL ([13]; systemic / pathology microscopic / liver / carcinoma) of 29 mg/kg/day. The LOAEL ([14]; systemic / clinical chemistry / cholesterol / cholesterol + systemic / clinical chemistry / creatinine / creatinine + systemic / clinical …) was 56 mg/kg/day, the LEL [14, 34] was 3 mg/kg/day and the NEL [14, 34] was less than 3 mg/kg/day. It also gave an NOAEL ([14]; systemic / pathology gross / urinary bladder / foci + systemic / clinical chemistry / cholesterol / cholesterol + systemic / clinical …) of 11.5 mg/kg/day, an LOAEL [15, 35] of 223 mg/kg/day and an NOAEL [15, 35] of 22 mg/kg/day. For the same molecule, the LEL [15, 36] was 22 mg/kg/day, the NEL [15, 36] was less than 22 mg/kg/day and the LEL [16, 37] was 120 mg/kg/day. For the same molecule, the LOAEL [16, 37] was 120 mg/kg/day, the NEL [16, 37] was 40 mg/kg/day and the NOAEL [16, 37] was 40 mg/kg/day. It also gave an LOAEL ([16]; group: maternal, systemic / in life observation / food consumption / food consumption) of 360 mg/kg/day, an LEL [16, 38] of 360 mg/kg/day and an NEL [16, 38] of 120 mg/kg/day. It also gave an NOAEL [16, 38] of 120 mg/kg/day, an LEL [17, 39] of 310 mg/kg/day and an LOAEL [17, 39] of 310 mg/kg/day. The NEL [17, 40] was 82 mg/kg/day, the NOAEL [17, 40] was 82 mg/kg/day and the LEL ([18]; systemic / pathology microscopic / liver / eosinophilic focus + systemic / pathology microscopic / liver / infiltration cellular) was 30 mg/kg/day. The NEL ([18]; systemic / pathology microscopic / liver / eosinophilic focus + systemic / pathology microscopic / liver / infiltration cellular + systemic…) was 5 mg/kg/day, the LOAEL [18, 41] was 6 mg/kg/day and the NOAEL [18, 41] was less than 6 mg/kg/day.
